# According to patent publication US20230321123A1, “INHIBITORS OF PSEUDOMONAS AERUGINOSA VIRULENCE FACTOR LasB” (Helmholtz-Zentrum Für Infektionsforschung GmbH, priority 2020, published 2023):
# Read-outs that look alike come from different tables or passages of the source.
# Columns and labels:
# LasB = LasB (Pseudomonas aeruginosa, UniProt Q02RJ6); test: biochemical; design: species or system P. aeruginosa
# MMP-1 = molecular target: T1, MMP-1 (Homo sapiens, UniProt P03956); test: Selectivity against human off-targets: MMP-1; format: biochemical; conditions: read-out: Inhibition [%] MMP-1
# T1 sequence (P03956 100-469): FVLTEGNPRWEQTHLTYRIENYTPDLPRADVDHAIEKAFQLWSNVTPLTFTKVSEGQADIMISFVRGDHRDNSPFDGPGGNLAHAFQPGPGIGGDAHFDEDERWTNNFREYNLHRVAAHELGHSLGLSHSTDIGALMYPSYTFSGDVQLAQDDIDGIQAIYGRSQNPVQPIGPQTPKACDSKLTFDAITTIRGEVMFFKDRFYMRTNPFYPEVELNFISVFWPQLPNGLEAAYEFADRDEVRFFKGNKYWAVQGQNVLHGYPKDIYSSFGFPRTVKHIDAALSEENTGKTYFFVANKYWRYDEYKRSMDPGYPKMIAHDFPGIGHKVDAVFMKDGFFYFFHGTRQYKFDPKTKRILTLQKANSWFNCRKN
# Text: (§1) The inhibition of zinc-containing human enzymes is described frequently for LasB inhibitors and poses a serious difficulty in the development of selective compounds. Particularly, the inhibition of matrix metalloproteases (MMPs) should be avoided. To further investigate this issue, three derivatives (the compounds of examples 1, 5 and 8) have been tested for their selectivity against several human off-targets, including six MMPs, ADAM17 (TACE), HDAC-3 and HDAC-8 (Table 4). The selectivity of the compounds is particularly high for MMPs and HDACs, whereas the inhibition of ADAM17 was considerably stronger.
# MMP-2 = molecular target: T2, MMP-2 (Homo sapiens, UniProt P08253); test: Selectivity against human off-targets: MMP-2; format: biochemical; conditions: read-out: Inhibition [%] MMP-2
# T2 sequence (P08253 110-660): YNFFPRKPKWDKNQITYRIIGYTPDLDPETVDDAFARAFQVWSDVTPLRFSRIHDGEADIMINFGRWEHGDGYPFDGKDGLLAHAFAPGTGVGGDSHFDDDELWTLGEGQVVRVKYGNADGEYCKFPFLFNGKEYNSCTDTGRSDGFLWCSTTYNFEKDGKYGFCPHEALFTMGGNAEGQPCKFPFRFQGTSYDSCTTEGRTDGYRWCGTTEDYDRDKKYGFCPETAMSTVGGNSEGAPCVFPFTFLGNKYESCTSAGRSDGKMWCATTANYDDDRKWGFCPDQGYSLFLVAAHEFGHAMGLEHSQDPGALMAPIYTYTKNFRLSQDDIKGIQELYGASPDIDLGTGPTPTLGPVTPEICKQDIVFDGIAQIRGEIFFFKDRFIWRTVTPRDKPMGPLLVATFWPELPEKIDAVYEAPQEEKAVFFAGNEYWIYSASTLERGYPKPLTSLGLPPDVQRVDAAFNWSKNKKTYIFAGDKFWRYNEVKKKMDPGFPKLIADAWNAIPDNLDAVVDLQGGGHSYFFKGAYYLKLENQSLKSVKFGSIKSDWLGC
# Text: as §1
# MMP-3 = MMP-3 (Homo sapiens, UniProt P08254); test: Selectivity against human off-targets: MMP-3; format: biochemical; conditions: read-out: Inhibition [%] MMP-3
# Sequence of MMP-3 (P08254 100-477): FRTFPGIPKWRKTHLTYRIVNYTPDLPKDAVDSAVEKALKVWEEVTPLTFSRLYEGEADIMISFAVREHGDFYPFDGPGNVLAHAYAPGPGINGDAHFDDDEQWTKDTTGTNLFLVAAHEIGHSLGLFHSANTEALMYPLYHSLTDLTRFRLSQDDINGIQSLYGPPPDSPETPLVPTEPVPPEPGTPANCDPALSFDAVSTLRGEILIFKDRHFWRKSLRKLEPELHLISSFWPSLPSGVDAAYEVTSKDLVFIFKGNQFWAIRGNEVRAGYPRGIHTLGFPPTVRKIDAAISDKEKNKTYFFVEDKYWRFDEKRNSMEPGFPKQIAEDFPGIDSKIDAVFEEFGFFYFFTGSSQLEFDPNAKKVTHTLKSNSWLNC
# Text: as §1
# ADAM17 (TACE) = ADAM17 (TACE) (Homo sapiens, UniProt P78536); test: Selectivity against human off-targets: ADAM17 (TACE); format: biochemical
# Sequence of ADAM17 (TACE) (P78536 215-824): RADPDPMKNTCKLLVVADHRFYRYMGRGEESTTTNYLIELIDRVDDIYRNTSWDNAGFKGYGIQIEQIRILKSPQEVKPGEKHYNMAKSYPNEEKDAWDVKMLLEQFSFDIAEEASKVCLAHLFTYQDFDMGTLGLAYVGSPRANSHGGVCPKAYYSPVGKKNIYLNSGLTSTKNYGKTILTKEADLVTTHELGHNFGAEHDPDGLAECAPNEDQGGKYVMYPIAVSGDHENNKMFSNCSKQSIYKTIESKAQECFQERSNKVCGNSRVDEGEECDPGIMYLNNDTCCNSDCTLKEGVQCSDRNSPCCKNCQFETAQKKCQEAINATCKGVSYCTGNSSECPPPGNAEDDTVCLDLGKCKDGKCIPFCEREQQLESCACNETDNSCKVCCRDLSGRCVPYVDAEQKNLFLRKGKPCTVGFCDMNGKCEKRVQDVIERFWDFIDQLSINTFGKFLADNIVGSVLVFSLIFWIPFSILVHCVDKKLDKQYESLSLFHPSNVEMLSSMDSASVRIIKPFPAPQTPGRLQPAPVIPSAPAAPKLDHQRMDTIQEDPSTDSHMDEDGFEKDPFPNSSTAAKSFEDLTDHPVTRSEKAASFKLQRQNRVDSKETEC
# COX-1 = COX-1 (Homo sapiens, UniProt P23219); test: Selectivity against off-targets: COX-1; format: biochemical
# Sequence of COX-1 (P23219 24-599): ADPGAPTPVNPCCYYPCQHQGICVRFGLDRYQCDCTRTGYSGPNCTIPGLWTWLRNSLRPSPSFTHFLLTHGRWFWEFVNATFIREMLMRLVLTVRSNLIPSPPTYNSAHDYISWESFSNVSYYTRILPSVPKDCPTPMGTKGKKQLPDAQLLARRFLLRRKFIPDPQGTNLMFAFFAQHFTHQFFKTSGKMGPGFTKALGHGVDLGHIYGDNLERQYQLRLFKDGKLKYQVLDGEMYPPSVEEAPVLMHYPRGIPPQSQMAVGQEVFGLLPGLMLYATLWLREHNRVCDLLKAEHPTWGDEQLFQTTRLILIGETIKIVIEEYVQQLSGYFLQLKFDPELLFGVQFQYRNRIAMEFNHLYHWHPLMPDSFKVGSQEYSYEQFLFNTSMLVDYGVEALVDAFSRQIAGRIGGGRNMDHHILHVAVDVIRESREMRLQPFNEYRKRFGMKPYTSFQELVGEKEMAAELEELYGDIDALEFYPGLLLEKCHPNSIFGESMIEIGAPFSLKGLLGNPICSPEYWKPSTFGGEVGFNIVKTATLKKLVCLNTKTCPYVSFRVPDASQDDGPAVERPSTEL
# Cytotoxicity HepG2 = format: cell-based; conditions: human
# Experimental: (§2) The compounds of examples 1 and 5 were not toxic against the cell lines HepG2, HEK293 and A549 (Table 5). Additionally, the inhibitory effect against P. aeruginosa PA14 was evaluated to exclude an antibacterial effect of the compounds of the present invention. This is important as it was the aim to target virulence and not viability of the bacteria. […]
# Cytotoxicity HEK293 = format: cell-based; conditions: human
# Experimental: as §2
# Cytotoxicity A549 = format: cell-based; conditions: human
# Experimental: as §2
# P. aeruginosa PA14 = test: PA14 inhibition (MIC, antibacterial effect); format: cell-based
# Experimental: as §2
# MMP-7 = molecular target: T3, MMP-7 (Homo sapiens, UniProt P09237); test: Selectivity against human off-targets: MMP-7; format: biochemical; conditions: read-out: Inhibition [%] MMP-7
# T3 sequence (P09237 95-267): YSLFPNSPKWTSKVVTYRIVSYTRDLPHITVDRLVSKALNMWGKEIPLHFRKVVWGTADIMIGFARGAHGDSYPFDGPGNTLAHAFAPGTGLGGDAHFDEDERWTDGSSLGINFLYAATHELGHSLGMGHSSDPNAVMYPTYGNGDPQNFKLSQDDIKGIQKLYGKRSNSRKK
# Text: as §1
# MMP-8 = MMP-8 (Homo sapiens, UniProt P22894); test: Selectivity against human off-targets: MMP-8; format: biochemical; conditions: read-out: Inhibition [%] MMP-8
# Sequence of MMP-8 (P22894 101-467): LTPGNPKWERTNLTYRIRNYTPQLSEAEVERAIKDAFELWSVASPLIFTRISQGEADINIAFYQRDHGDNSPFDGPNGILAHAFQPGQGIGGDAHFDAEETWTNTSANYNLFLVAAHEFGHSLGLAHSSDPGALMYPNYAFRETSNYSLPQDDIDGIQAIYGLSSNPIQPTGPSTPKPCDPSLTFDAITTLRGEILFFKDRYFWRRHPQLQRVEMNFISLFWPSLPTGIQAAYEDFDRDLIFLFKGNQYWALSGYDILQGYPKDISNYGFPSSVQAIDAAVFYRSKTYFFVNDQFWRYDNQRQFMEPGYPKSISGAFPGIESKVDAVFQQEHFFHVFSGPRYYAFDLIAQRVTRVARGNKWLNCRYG
# Text: as §1
# MMP-14 = MMP-14 (Homo sapiens, UniProt P50281); test: Selectivity against human off-targets: MMP-14; format: biochemical; conditions: read-out: Inhibition [%] MMP-14
# Text: as §1
# HDAC-3 = HDAC-3 (Homo sapiens, UniProt O15379); test: Selectivity against human off-targets: HDAC-3; format: biochemical
# Sequence of HDAC-3 (O15379 whole entry): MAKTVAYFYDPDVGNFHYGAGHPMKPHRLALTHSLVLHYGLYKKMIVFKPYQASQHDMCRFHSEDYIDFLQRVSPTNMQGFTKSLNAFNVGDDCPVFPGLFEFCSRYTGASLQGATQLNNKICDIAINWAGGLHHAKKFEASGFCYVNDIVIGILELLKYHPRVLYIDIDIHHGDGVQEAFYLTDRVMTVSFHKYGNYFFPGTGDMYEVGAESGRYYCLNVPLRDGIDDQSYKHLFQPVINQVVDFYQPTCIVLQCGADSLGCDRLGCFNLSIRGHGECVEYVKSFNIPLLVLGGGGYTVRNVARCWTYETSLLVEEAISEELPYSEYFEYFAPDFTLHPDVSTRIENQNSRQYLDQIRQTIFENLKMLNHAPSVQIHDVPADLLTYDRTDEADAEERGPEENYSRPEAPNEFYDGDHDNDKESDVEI
# Sequence of HDAC-3 (Q9Y618 395-489 partner limits assumed): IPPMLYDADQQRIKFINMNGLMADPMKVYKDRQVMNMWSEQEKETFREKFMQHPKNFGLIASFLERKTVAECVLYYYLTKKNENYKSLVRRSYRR
# Text: as §1
# HDAC-8 = molecular target: T4, HDAC-8 (Homo sapiens, UniProt Q9BY41); test: Selectivity against human off-targets: HDAC-8; format: biochemical
# T4 sequence (Q9BY41 1-377): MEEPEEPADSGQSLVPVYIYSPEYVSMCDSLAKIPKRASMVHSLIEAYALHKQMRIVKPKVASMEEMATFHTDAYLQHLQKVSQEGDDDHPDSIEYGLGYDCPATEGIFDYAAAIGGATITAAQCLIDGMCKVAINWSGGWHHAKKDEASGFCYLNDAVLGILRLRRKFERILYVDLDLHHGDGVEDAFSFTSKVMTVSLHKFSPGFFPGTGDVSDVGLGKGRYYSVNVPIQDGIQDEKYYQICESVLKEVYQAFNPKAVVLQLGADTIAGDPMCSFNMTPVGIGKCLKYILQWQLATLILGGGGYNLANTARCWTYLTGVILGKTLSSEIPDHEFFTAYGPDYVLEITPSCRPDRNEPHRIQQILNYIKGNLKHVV
# Text: as §1
# [1] = Pseudomonas aeruginosa, PA14; read-out: MIC PA14
# Sequence of LasB (Q02RJ6 198-498): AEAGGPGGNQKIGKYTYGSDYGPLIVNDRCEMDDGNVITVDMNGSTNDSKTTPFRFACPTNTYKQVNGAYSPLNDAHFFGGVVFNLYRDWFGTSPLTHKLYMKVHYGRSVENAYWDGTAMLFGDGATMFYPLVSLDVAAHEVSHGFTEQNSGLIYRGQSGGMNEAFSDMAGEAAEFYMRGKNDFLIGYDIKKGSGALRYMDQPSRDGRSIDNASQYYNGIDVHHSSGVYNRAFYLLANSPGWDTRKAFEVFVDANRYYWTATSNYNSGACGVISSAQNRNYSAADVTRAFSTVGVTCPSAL
smiles,measurement,setting,value
"CC(C)CC(C(=O)N[C@H](c1cn(-c2ccc(Cl)c(Cl)c2)nn1)C(C)C)P(=O)(O)O (mixture of isomers) [Example 170, (1-(((S)-1-(1-(3,4-dichlorophenyl)-1H-1,2,3-triazol-4-yl)-2-methylpropyl)amino)-4-methyl-1-oxopentan-2-yl)phosphonic acid]",IC50,"LasB; IC50 against LasB (Table 16), heteropentacycles and benzannulated heteropentacycles",60 ± 3 µM
same,inhibition at 100 µM,MMP-1; at 100 μM,11%
same,inhibition at 100 µM,MMP-2; at 100 μM,< 10%
same,inhibition at 100 µM,MMP-3; at 100 μM,< 10%
same,inhibition at 100 µM,ADAM17 (TACE); at 100 μM,< 10%
same,inhibition at 100 µM,COX-1,< 10%
same,IC50,Cytotoxicity HepG2; HepG2,> 100 µM
same,IC50,Cytotoxicity HEK293; HEK293,> 100 µM
same,IC50,Cytotoxicity A549; A549,> 100 µM
same,MIC,P. aeruginosa PA14; [1],> 100 µM
"O=C(Nc1ccccc1)C(S)Cc1ccccc1 (racemic) [Example 1, 2-Mercapto-N,3-diphenylpropanamide]",IC50,LasB; IC50 against LasB,1.2 ± 0.1 µM
same,inhibition at 100 µM,MMP-1,< 10%
same,inhibition at 100 µM,MMP-2,< 10%
same,inhibition at 100 µM,MMP-3,< 10%
same,inhibition at 100 µM,MMP-7,< 10%
same,inhibition at 100 µM,MMP-8,34 ± 11%
same,inhibition at 100 µM,MMP-14,< 10%
same,IC50,ADAM17 (TACE); read-out: IC50 ADAM17 (TACE),2.2 ± 0.1 µM
same,IC50,HDAC-3; read-out: IC50 HDAC-3,> 100 µM
same,IC50,HDAC-8; read-out: IC50 HDAC-8,> 100 µM
same,IC50,Cytotoxicity HepG2; HepG2,> 100 µM
same,IC50,Cytotoxicity HEK293; HEK293,> 100 µM
same,IC50,Cytotoxicity A549; A549,> 100 µM
same,MIC,"P. aeruginosa PA14; Pseudomonas aeruginosa, PA14, read-out: MIC PA14",> 100 µM
"Cc1ccc(NC(=O)C(CC(C)C)P(=O)(O)O)cc1 (centres unmarked) [Example 63, (4-Methyl-1-oxo-1-(p-tolylamino)pentan-2-yl)phosphonic acid]",IC50,LasB; IC50 against LasB,0.051 ± 0.007 µM
same,inhibition at 100 µM,MMP-1; at 100 μM,< 10%
same,inhibition at 100 µM,MMP-2; at 100 μM,< 10%
same,inhibition at 100 µM,MMP-3; at 100 μM,< 10%
same,inhibition at 100 µM,MMP-7; at 100 μM,< 10%
same,inhibition at 100 µM,MMP-8; at 100 μM,10%
same,inhibition at 100 µM,MMP-14; at 100 μM,12 ± 7%
same,IC50,ADAM17 (TACE),> 100 µM
same,IC50,HDAC-3,> 100 µM
same,IC50,HDAC-8,> 100 µM
same,IC50,Cytotoxicity HepG2; HepG2 cells,> 100 µM
same,IC50,Cytotoxicity HEK293; HEK293 cells,> 100 µM
same,IC50,Cytotoxicity A549; A549 cells,> 100 µM
same,MIC,P. aeruginosa PA14; [1],> 100 µM
